Like-named read-outs stand apart in the source and are kept apart here.
Columns and labels:
KRas G12C = KRas G12C (Homo sapiens, UniProt P01116, C118S/C51S/C80L/G12C); experiment: KRas G12C Modification Assay (LCMS detection of covalent adduct); assay type: binding; settings: normalized percent of control; tested at 5 μM concentration for 3 hours
How it was run: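 Covalent modification was read by reverse-phase LC/MS of intact protein after compound exposure, each reaction stopped at its time point with 25 mM acetic acid. Unmodified-protein signal, taken as percent of total, was normalised to untreated protein and reported as POC.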

[1] = tested on: NCI-H358 cells (express KRas G12C), Phospho-ERK; experiment: Cellular inhibition of KRas G12C: Phospho-ERK in NCI-H358 cells; assay type: cell-based; settings: Homo sapiens, pERK(Thr202/Tyr204) normalized with GAPDH, NCI-H358 cells, 3 hours, read-out: IC50
How it was run: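 IC50 derived by 4-parameter fit of GAPDH-normalized pERK(Thr202/Tyr204) signal, as percent of DMSO control. Signal came from in-cell immunodetection with infrared secondaries after 3 h compound exposure of KRas G12C NCI-H358 cells at 0.5% DMSO.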

SMILES | POC (KRas G12C) | IC50 ([1]; NCI-H358, 3 h) | IC50 [1]
C=CC(=O)N1CCN(c2nc(OC[C@@H]3C[C@@H](OC)CN3C)nc3c2CCN(c2cccc4ccccc24)C3)C[C@@H]1CC#N [Example 327, 2-((S)-1-acryloyl-4-(2-(((2S,4R)-4-methoxy-1-methylpyrrolidin-2-yl)methoxy)-7-(naphthalen-1-yl)-5,6,7,8-tetrahydropyrido[3,4-d]pyrimidin-4-yl)piperazin-2-yl)acetonitrile] | C (“C”>50% POC) | 0.1 to 1000 nM | –
C=CC(=O)N1CCN(c2nc(OC[C@@H]3CCCN3C)nc3c2CCN(c2cccc(F)c2C(F)(F)F)C3)C[C@@H]1CC#N [Example 328, 2-((S)-1-acryloyl-4-(7-(3-fluoro-2-(trifluoromethyl)phenyl)-2-(((S)-1-methylpyrrolidin-2-yl)methoxy)-5,6,7,8-tetrahydropyrido[3,4-d]pyrimidin-4-yl)piperazin-2-yl)acetonitrile] | C (“C”>50% POC) | 0.1 to 1000 nM | –
C=CC(=O)N1CCN(c2nc(OC[C@H]3CCCN3CCO)nc3c2CCN(c2cccc4ccccc24)C3)C[C@@H]1CC#N [Example 329, 2-[(2S)-4-[2-[[(2R)-1-(2-hydroxyethyl)pyrrolidin-2-yl]methoxy]-7-(1-naphthyl)-6,8-dihydro-5H-pyrido[3,4-d]pyrimidin-4-yl]-1-prop-2-enoyl-piperazin-2-yl]acetonitrile] | C (“C”>50% POC) | 0.1 to 1000 nM | –
C=CC(=O)N1CCN(c2nc(OC[C@@H]3CCCN3C)nc3c2CCN(c2cccc(OC)c2C(F)(F)F)C3)C[C@@H]1CC#N [Example 330, 2-[(2S)-4-[7-[3-methoxy-2-(trifluoromethyl)phenyl]-2-[[(2S)-1-methylpyrrolidin-2-yl]methoxy]-6,8-dihydro-5H-pyrido[3,4-d]pyrimidin-4-yl]-1-prop-2-enoyl-piperazin-2-yl]acetonitrile] | C (“C”>50% POC) | 0.1 to 1000 nM | –
C=CC(=O)N1CCN(c2nc(OC[C@@H]3C[C@@H](OC)CN3C)nc3c2CCN(c2cccc(Cl)c2C(F)(F)F)C3)C[C@@H]1CC#N [Example 332, 2-[(2S)-4-[7-[3-chloro-2-(trifluoromethyl)phenyl]-2-[[(2S,4R)-4-methoxy-1-methyl-pyrrolidin-2-yl]methoxy]-6,8-dihydro-5H-pyrido[3,4-d]pyrimidin-4-yl]-1-prop-2-enoyl-piperazin-2-yl]acetonitrile] | C (“C”>50% POC) | 0.1 to 1000 nM | –
C=CC(=O)N1CCN(c2nc(OC[C@@H]3CCCN3C)nc3c2CCN(c2cccc4ccc(F)cc24)C3)C[C@@H]1CC#N [Example 333, 2-[(2S)-4-[7-(7-fluoro-1-naphthyl)-2-[[(2S)-1-methylpyrrolidin-2-yl]methoxy]-6,8-dihydro-5H-pyrido[3,4-d]pyrimidin-4-yl]-1-prop-2-enoyl-piperazin-2-yl]acetonitrile] | C (“C”>50% POC) | 0.1 to 1000 nM | –
C=CC(=O)N1CCN(c2nc(OC[C@H]3CCCN3CC)nc3c2CCN(c2cccc4ccccc24)C3)C[C@@H]1CC#N [Example 334, 2-[(2S)-4-[2-[[(2R)-1-ethylpyrrolidin-2-yl]methoxy]-7-(1-naphthyl)-6,8-dihydro-5H-pyrido[3,4-d]pyrimidin-4-yl]-1-prop-2-enoyl-piperazin-2-yl]acetonitrile] | C (“C”>50% POC) | 0.1 to 1000 nM | –
C=CC(=O)N1CCN(c2nc(OC[C@@H]3C[C@@H](OC)CN3CC)nc3c2CCN(c2cccc(Cl)c2C(F)(F)F)C3)C[C@@H]1CC#N [Example 335, 2-[(2S)-4-[7-[3-chloro-2-(trifluoromethyl)phenyl]-2-[[(2S,4R)-1-ethyl-4-methoxy-pyrrolidin-2-yl]methoxy]-6,8-dihydro-5H-pyrido[3,4-d]pyrimidin-4-yl]-1-prop-2-enoyl-piperazin-2-yl]acetonitrile] | C (“C”>50% POC) | 0.1 to 1000 nM | –
C=CC(=O)N1C[C@H](C)N(c2nc(OC[C@@H]3CCCN3C)nc3c2CCN(c2cc(O)cc4ccccc24)C3)C[C@H]1C [Example 336, 1-[(2R,5S)-4-[7-(3-hydroxy-1-naphthyl)-2-[[(2S)-1-methylpyrrolidin-2-yl]methoxy]-6,8-dihydro-5H-pyrido[3,4-d]pyrimidin-4-yl]-2,5-dimethyl-piperazin-1-yl]prop-2-en-1-one] | C (“C”>50% POC) | 0.1 to 1000 nM | –

Further lines, with some results ahead:

POC (KRas G12C) | SMILES | IC50 ([1]; NCI-H358, 3 h) | IC50 [1]
C (“C”>50% POC) | C=CC(=O)N1CCN(c2nc(OC[C@@H]3CCCN3C)nc3c2CCN(c2cccc(Cl)c2CC)C3)C[C@@H]1CC#N [Example 337, 2-[(2S)-4-[7-(3-chloro-2-ethyl-phenyl)-2-[[(2S)-1-methylpyrrolidin-2-yl]methoxy]-6,8-dihydro-5H-pyrido[3,4-d]pyrimidin-4-yl]-1-prop-2-enoyl-piperazin-2-yl]acetonitrile] | 0.1 to 1000 nM | –
C (“C”>50% POC) | C=CC(=O)N1CCN(c2nc(OC[C@@H]3CCCN3C)nc3c2CCN(c2cccc4cccc(F)c24)C3)C[C@@H]1CC#N [Example 338, 2-((S)-1-acryloyl-4-(7-(8-fluoronaphthalen-1-yl)-2-(((S)-1-methylpyrrolidin-2-yl)methoxy)-5,6,7,8-tetrahydropyrido[3,4-d]pyrimidin-4-yl)piperazin-2-yl)acetonitrile] | 0.1 to 1000 nM | –
C (“C”>50% POC) | C=CC(=O)N1CCN(c2nc(OC[C@@H]3CCCN3CC)nc3c2CCN(c2cccc(Cl)c2C(F)(F)F)C3)C[C@@H]1CC#N [Example 339, 2-((S)-1-acryloyl-4-(7-(3-chloro-2-(trifluoromethyl)phenyl)-2-(((S)-1-ethylpyrrolidin-2-yl)methoxy)-5,6,7,8-tetrahydropyrido[3,4-d]pyrimidin-4-yl)piperazin-2-yl)acetonitrile] | 0.1 to 1000 nM | –
C (“C”>50% POC) | C=CC(=O)N1CCN(c2nc(OC[C@@H]3CCCN3C)nc3c2CCN(c2cnccc2OC)C3)C[C@@H]1CC#N [Example 340, 2-((S)-1-acryloyl-4-(7-(4-methoxypyridin-3-yl)-2-(((S)-1-methylpyrrolidin-2-yl)methoxy)-5,6,7,8-tetrahydropyrido[3,4-d]pyrimidin-4-yl)piperazin-2-yl)acetonitrile] | > 1000 nM | –
C (“C”>50% POC) | C=CC(=O)N1CCN(c2nc(OC[C@@H]3CCCN3CCO)nc3c2CCN(c2cccc4ccccc24)C3)C[C@@H]1CC#N [Example 341, 2-((S)-1-acryloyl-4-(2-(((S)-1-(2-hydroxyethyl)pyrrolidin-2-yl)methoxy)-7-(naphthalen-1-yl)-5,6,7,8-tetrahydropyrido[3,4-d]pyrimidin-4-yl)piperazin-2-yl)acetonitrile] | 0.1 to 1000 nM | –
C (“C”>50% POC) | CN(C)C/C=C/C(=O)N1CCN(c2nc(OC[C@@H]3C[C@@H](O)CN3C)nc3c2CCN(c2cccc(F)c2C(F)(F)F)C3)C[C@@H]1CC#N [Example 342, 2-[(2S)-1-[(E)-4-(dimethylamino)but-2-enoyl]-4-[7-[3-fluoro-2-(trifluoromethyl)phenyl]-2-[[(2S,4R)-4-hydroxy-1-methyl-pyrrolidin-2-yl]methoxy]-6,8-dihydro-5H-pyrido[3,4-d]pyrimidin-4-yl]piperazin-2-yl]acetonitrile] | – | 0.1 to 1000 nM
C (“C”>50% POC) | C=CS(=O)(=O)N1CCN(c2nc(OC[C@@H]3CCCN3C)nc3c2CCN(c2cccc(C)c2C)C3)CC1 [Example 343, (S)-7-(2,3-dimethylphenyl)-2-((1-methylpyrrolidin-2-yl)methoxy)-4-(4-(vinylsulfonyl)piperazin-1-yl)-5,6,7,8-tetrahydropyrido[3,4-d]pyrimidine] | > 1000 nM | –
C (“C”>50% POC) | C=CC(=O)N1CCN(c2nc(OC[C@H]3CCCN3C)nc3c2CCN(c2cc(O)cc4ccccc24)C3)C[C@@H]1CC#N [Example 344, 2-[(2S)-4-[7-(3-hydroxy-1-naphthyl)-2-[[(2R)-1-methylpyrrolidin-2-yl]methoxy]-6,8-dihydro-5H-pyrido[3,4-d]pyrimidin-4-yl]-1-prop-2-enoyl-piperazin-2-yl]acetonitrile] | 0.1 to 1000 nM | –
C (“C”>50% POC) | C=CC(=O)N1CCN(c2nc(OC[C@@H]3CCCN3C)nc3c2CCN(c2ccncc2C)C3)C[C@@H]1CC#N [Example 345, 2-[(2S)-4-[7-(3-methyl-4-pyridyl)-2-[[(2S)-1-methylpyrrolidin-2-yl]methoxy]-6,8-dihydro-5H-pyrido[3,4-d]pyrimidin-4-yl]-1-prop-2-enoyl-piperazin-2-yl]acetonitrile] | > 1000 nM | –
C (“C”>50% POC) | CN1CCC[C@H]1COc1nc2c(c(N3CCN(C(=O)/C=C/CN4CCOCC4)[C@@H](CC#N)C3)n1)CCN(c1cccc(Cl)c1C(F)(F)F)C2 [Example 346, 2-[(2S)-4-[7-[3-chloro-2-(trifluoromethyl)phenyl]-2-[[(2S)-1-methylpyrrolidin-2-yl]methoxy]-6,8-dihydro-5H-pyrido[3,4-d]pyrimidin-4-yl]-1-[(E)-4-morpholinobut-2-enoyl]piperazin-2-yl]acetonitrile] | 0.1 to 1000 nM | –
C (“C”>50% POC) | CN1CCC[C@H]1COc1nc2c(c(N3CCN(C(=O)/C=C/CN4CCCC4)[C@@H](CC#N)C3)n1)CCN(c1cccc(Cl)c1C(F)(F)F)C2 [Example 347, 2-[(2S)-4-[7-[3-chloro-2-(trifluoromethyl)phenyl]-2-[[(2S)-1-methylpyrrolidin-2-yl]methoxy]-6,8-dihydro-5H-pyrido[3,4-d]pyrimidin-4-yl]-1-[(E)-4-pyrrolidin-1-ylbut-2-enoyl]piperazin-2-yl]acetonitrile] | 0.1 to 1000 nM | –

— US10125134B2 (Mirati Therapeutics, Inc., priority 2016, dated 2018)
